Laboratory results from patent US20140328852A1, “IMMUNOGENIC GLUTEN PEPTIDES AND USES THEREOF” (UNIVERSIDAD DE VALLADOLID, priority 2011, published 2014).

Assays:
Format in all cases: cell-based, human
[1] = test system: dendritic cells derived from monocytes; experiment: Phenotypic maturation of monocyte-derived dendritic cells (flow cytometry of membrane markers); conditions: dendritic cells from healthy controls, peptide 100 μg/mL, 48 hours
Protocol: FIG. 2. […] Shadowed histograms represent the expression of the co-stimulator markers (CD40, CD80, CD86) or activators (CD83) in dendritic cells. Empty histograms represent isotype controls. This experiment is representative of three independent experiments; each of them is performed by triplicate.
(§1) Mononuclear cells from ABO-compatible peripheral blood were isolated by centrifugation on a density gradient, and magnetic beads with anti-CD14 antibodies to separate CD14+ monocytes, that were induced for 6 days to differentiate into immature dendritic cells by IL-4 and GM-CSF (confirmed by flow cytometry) were isolated too. These cells were first stimulated for 48 hours with the 8-mer peptide (100 μg/mL, 10 μg/mL, 1 μg/mL) and other known gliadin peptides: 19-mer (100 μg/mL) and 33-mer (100 μg/mL) and then a co-culture with autologous T lymphocytes was performed (population CD14-obtained above), in which dendritic cells act as antigen presenting cells. As negative and positive controls of stimulation, a CD14-cell culture without dendritic cells (basal), and CD14-cells stimulated with lipopolysaccharide (LPS) were used respectively. After 4 days, the cell proliferation rate was calculated according to the absorbance ratio of stimulated/unstimulated dendritic cells in co-culture with autologous T lymphocytes.

[2] = test system: dendritic cells derived from monocytes; experiment: Cytokine mRNA expression in stimulated monocyte-derived dendritic cells; conditions: dendritic cells from healthy donors, peptide 100 μg/ml, 48 hours
autologous T lymphocytes = experiment: Proliferation of autologous T lymphocytes in co-culture with peptide-stimulated dendritic cells; conditions: for proliferative response of autologous T lymphocytes (in words): celiac HLA-DQ2+ and non-celiac HLA-DQ2− samples; for proliferation rate: 4 days co-culture
Protocol: FIG. 4. […] The mean and standard deviation of an experiment performed in triplicate are shown, and which is representative of three independent experiments with similar results. Each experiment was performed with an untreated celiac patient with genotype HLA-DQ2^+ and parallel to a healthy non-celiac individual HLA-DQ2^− as a control (C).
Monocyte-derived dendritic cells serve as antigen presenting cells. Stimulation experiments carried out in the present invention included a positive proliferation control (T lymphocytes cultured in the presence of monocyte-derived dendritic cells pre-activated in the presence of lipopolysaccharide, LPS) and two negative controls: CD14-fraction enriched with cultured T lymphocytes i) in basal medium and ii) in the presence of monocyte-derived dendritic cells unstimulated.
as §1

[3] = peptide 100 μg/ml, cells from celiac patients HLA-DQ2+, ratio stimulated/unstimulated dendritic cells
[4] = peptide 100 μg/ml, cells from non-celiac individuals HLA-DQ2−, ratio stimulated/unstimulated dendritic cells

Substance | membrane expression of CD40 and CD80 markers [1] | membrane expression of CD83 or CD86 [1] | expression of IL-4 mRNA [2] [times] | expression of IL-12p40 mRNA [2] | proliferative response of autologous T lymphocytes (in words) (autologous T lymphocytes) | proliferation rate (autologous T lymphocytes; peptide 1 μg/ml, cells from celiac patients HLA-DQ2+) | proliferation rate (autologous T lymphocytes; peptide 1 μg/ml, cells from non-celiac individuals HLA-DQ2−) | proliferation rate (autologous T lymphocytes; peptide 10 μg/ml, cells from celiac patients HLA-DQ2+) | proliferation rate (autologous T lymphocytes; peptide 10 μg/ml, cells from non-celiac individuals HLA-DQ2−) | proliferation rate (autologous T lymphocytes; [3]) | proliferation rate (autologous T lymphocytes; [4])
8-mer: eight amino acid gliadin peptide (SEQ ID NO: 2) generated in the gut of celiac patients by bacterial proteases (FPLQPQQP; listed as Triticum aestivum) | increased | not | 79 | 0.4 times | induced a proliferative response | 1.27±0.005 | 1.04±0.039 | 1.69±0.005 | 1.28±0.034 | 2.09±0.029 | 1.51±0.108
19-mer: known gliadin peptide 19-mer (SEQ ID NO: 4) (LGQQQPFPPQQPYPQPQPF; listed as Triticum monococcum) | did not affect | did not affect | 7.7 | 0.4 times | did not induce proliferation |  |  |  |  | 1.06±0.011 | 1.03±0.039
33-mer: known immunodominant α-gliadin peptide 33-mer (SEQ ID NO: 5) (LQLQPFPQPELPYPQPELPYPQPELPYPQPQPF; Gluten peptide 33-mer) | did not affect | did not affect | 0.001 | inhibited | did not induce proliferation |  |  |  |  | 1.04±0.005 | 1.04±0.018
